The text below walks through data of PubChem BioAssay (NCI).

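Cells were grown in 96-well plates and exposed to each compound for 48 hours at five concentrations; endpoints were interpolated linearly between bracketing concentrations, or set to the highest concentration if not reached. TGI marks complete inhibition of growth.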 Some results are limits rather than exact numbers.

Among the test systems are 786-0 renal; ACHN renal; DU-145 prostate; HCC-2998 colon; HCT-15 colon; HT29 colon; KM12 colon; MOLT-4 leukemia; NCI-H226 lung; NCI/ADR-RES ovarian; OVCAR-8 ovarian; SF-268 CNS; SF-295 CNS; SK-MEL-2 melanoma; SK-MEL-5 melanoma; TK-10 renal; U251 CNS; UO-31 renal.
Common to all, as to experiment: inhibition of tumour cell growth, NCI panel, 48 h

As to `Clc1ccc(-c2nnc3sc4nc5ccccc5c-4nn23)c(Cl)c1`, the TGI with 786-0 renal, in the assay with ACHN renal, with DU-145 prostate, with HCC-2998 colon, in the assay on HCT-15 colon and in the assay on HT29 colon was above 100 µM each time. Further, the TGI in the assay with KM12 colon, in the assay with MOLT-4 leukemia, in the assay with NCI-H226 lung, in the assay on NCI/ADR-RES ovarian, with OVCAR-8 ovarian and in the assay on SF-268 CNS was above 100 µM throughout. Besides, the TGI in the assay with SF-295 CNS was above 100 µM; in the assay on SK-MEL-2 melanoma, 82.2 µM; with SK-MEL-5 melanoma, above 100 µM; in the assay with TK-10 renal, above 100 µM; in the assay with U251 CNS it was above 100 µM; in the assay on UO-31 renal, above 100 µM.

Consider `N#CC(C#N)=C1SC(=Nc2ccccc2)C(=Nc2ccccc2)N1c1ccccc1`, for which the TGI with 786-0 renal is 60.8 µM; with ACHN renal it was 71.3 µM; with DU-145 prostate, above 100 µM; in the assay on HCC-2998 colon, above 72 µM; in the assay on HCT-15 colon it was 6.3 µM; with HT29 colon, above 69.9 µM. The TGI is above 53.8 µM with KM12 colon; 11.8 µM in the assay on MOLT-4 leukemia; 44.7 µM in the assay with NCI-H226 lung; 97.1 µM in the assay with NCI/ADR-RES ovarian; 65.9 µM in the assay with OVCAR-8 ovarian; above 66.7 µM in the assay with SF-268 CNS. Further, the TGI is above 76.6 µM in the assay on SF-295 CNS; 44.3 µM in the assay with SK-MEL-2 melanoma; 28.7 µM in the assay on SK-MEL-5 melanoma; above 100 µM in the assay with TK-10 renal; 41 µM in the assay on U251 CNS; 25.3 µM in the assay on UO-31 renal.

Take `CC(=NNC(=S)Nc1ccccc1)c1cccc(C(C)=NNC(=S)Nc2ccccc2)n1`: the TGI in the assay on 786-0 renal was 35.4 µM; with ACHN renal, 6.86 µM; with DU-145 prostate, above 100 µM; in the assay on HCC-2998 colon, above 100 µM; with HCT-15 colon, above 100 µM; in the assay with HT29 colon it was above 100 µM. Moreover, the TGI in the assay on KM12 colon was above 100 µM; with MOLT-4 leukemia, above 30.1 µM; in the assay with NCI-H226 lung, above 44 µM; in the assay with NCI/ADR-RES ovarian it was above 100 µM; with OVCAR-8 ovarian, above 50.2 µM; with SF-268 CNS, above 100 µM. Besides, the TGI in the assay with SF-295 CNS is above 42 µM; in the assay on SK-MEL-2 melanoma, above 100 µM; in the assay with SK-MEL-5 melanoma, above 40.1 µM; with TK-10 renal, above 100 µM; in the assay with U251 CNS it was above 100 µM; with UO-31 renal, above 52.1 µM.

Consider `C/C(C[n+]1ccccc1)=N\N=C(N)N`, for which the TGI in the assay with 786-0 renal, with ACHN renal, with DU-145 prostate, in the assay on HCC-2998 colon, with HCT-15 colon and with HT29 colon was above 100 µM in each case. The TGI in the assay on KM12 colon, in the assay with MOLT-4 leukemia, in the assay with NCI-H226 lung, in the assay with NCI/ADR-RES ovarian, with OVCAR-8 ovarian and in the assay on SF-268 CNS was above 100 µM throughout. Besides, the TGI in the assay on SF-295 CNS, with SK-MEL-2 melanoma, in the assay with SK-MEL-5 melanoma, with TK-10 renal, in the assay with U251 CNS and in the assay on UO-31 renal was above 100 µM each time.

Take `O=C(O)c1ccccc1CC(Cc1ccc2c(c1)CCC2)C(=O)O` (centres undefined): the TGI with 786-0 renal, with ACHN renal, in the assay with DU-145 prostate, in the assay on HCC-2998 colon, in the assay on HCT-15 colon and in the assay with HT29 colon was above 100 µM in each case. Besides, the TGI in the assay with KM12 colon, in the assay on MOLT-4 leukemia, with NCI-H226 lung, with NCI/ADR-RES ovarian, in the assay with OVCAR-8 ovarian and in the assay with SF-268 CNS was above 100 µM each time. The TGI in the assay on SF-295 CNS, with SK-MEL-2 melanoma, in the assay with SK-MEL-5 melanoma, in the assay with TK-10 renal, with U251 CNS and in the assay on UO-31 renal was above 100 µM in each case.

As to `CC1=CCC([C@@](C)(O)CCCC(C)(C)N=C=S)CC1` (some centres undefined), the TGI came to 31.6 µM in the assay on 786-0 renal; 30.5 µM with ACHN renal; 30.7 µM in the assay with DU-145 prostate; 32.4 µM in the assay on HCC-2998 colon; 34.2 µM in the assay on HCT-15 colon; 32.9 µM in the assay with HT29 colon. In addition, the TGI in the assay on KM12 colon was 29.5 µM; in the assay on MOLT-4 leukemia, 50.5 µM; with NCI-H226 lung, 32.1 µM; in the assay on NCI/ADR-RES ovarian it was 38.9 µM; in the assay with OVCAR-8 ovarian, 32.7 µM; in the assay on SF-268 CNS, 31.6 µM. Moreover, the TGI with SF-295 CNS came out at 36.3 µM; in the assay with SK-MEL-2 melanoma, 33.3 µM; with SK-MEL-5 melanoma, 29.2 µM; in the assay with TK-10 renal it was 37.8 µM; with U251 CNS, 32.9 µM; in the assay on UO-31 renal, 26.7 µM.

`O=C1NC(N2CCOCC2)=N/C1=C\c1ccco1`: the TGI in the assay on 786-0 renal, in the assay with ACHN renal, with DU-145 prostate, in the assay with HCC-2998 colon, in the assay with HCT-15 colon and with HT29 colon was above 100 µM each time. For the same molecule, the TGI with KM12 colon, in the assay on MOLT-4 leukemia, in the assay on NCI-H226 lung, with NCI/ADR-RES ovarian, in the assay on OVCAR-8 ovarian and in the assay with SF-268 CNS was above 100 µM in each case. For the same molecule, the TGI in the assay with SF-295 CNS, in the assay on SK-MEL-2 melanoma, in the assay on SK-MEL-5 melanoma, in the assay on TK-10 renal, in the assay with U251 CNS and in the assay with UO-31 renal was above 100 µM each time.

Take `Cc1ccc(S(=O)(=O)n2c3c(c4ccccc42)CCN2C[C@H]([C@H](C)Br)CC[C@@H]32)cc1`: the TGI in the assay on 786-0 renal, in the assay on ACHN renal, in the assay on DU-145 prostate, in the assay with HCC-2998 colon, with HCT-15 colon and with HT29 colon was above 100 µM each time. In addition, the TGI with KM12 colon, with MOLT-4 leukemia, in the assay with NCI-H226 lung, in the assay on NCI/ADR-RES ovarian, with OVCAR-8 ovarian and with SF-268 CNS was above 100 µM throughout. For the same molecule, the TGI in the assay on SF-295 CNS, in the assay with SK-MEL-2 melanoma, with SK-MEL-5 melanoma, in the assay on TK-10 renal, in the assay with U251 CNS and in the assay with UO-31 renal was above 100 µM throughout.
